In publication PMC11990924, “Inhibition of Tyrosinase and Melanogenesis by Carboxylic Acids: Mechanistic Insights and Safety Evaluation” (Molecules, 2025):
Like-named read-outs stand apart in the source and are kept apart here.

Columns and labels:
mushroom tyrosinase = mushroom tyrosinase (Agaricus bisporus, UniProt C7FF04); assay: Inhibition of mushroom tyrosinase activity (L-DOPA, OD475); format: biochemical; conditions: read-out: tyrosinase inhibition rate
Description: L-DOPA solution (5 mM) and tyrosinase (400 U/mL) (Sigma-Aldrich, St. Louis, MO, USA) were prepared in PBS buffer (pH 7.4) (Qingdao Hope Bio-Technology Co., Ltd., Qingdao, China). A reaction mixture was prepared by combining 240 μL of carboxylic acid at various concentrations, 360 μL of L-DOPA solution, and 120 μL of tyrosinase. […] Deionized water was used as the control.

tyrosinase = target: T1, tyrosinase (Agaricus bisporus, UniProt C7FF04); assay: Fluorescence spectra analysis of tyrosinase; format: binding, mushroom; conditions: 6 mM; excitation 280 nm
T1 construct: purchased Sigma-Aldrich
T1 sequence (C7FF04 1-392 limits assumed): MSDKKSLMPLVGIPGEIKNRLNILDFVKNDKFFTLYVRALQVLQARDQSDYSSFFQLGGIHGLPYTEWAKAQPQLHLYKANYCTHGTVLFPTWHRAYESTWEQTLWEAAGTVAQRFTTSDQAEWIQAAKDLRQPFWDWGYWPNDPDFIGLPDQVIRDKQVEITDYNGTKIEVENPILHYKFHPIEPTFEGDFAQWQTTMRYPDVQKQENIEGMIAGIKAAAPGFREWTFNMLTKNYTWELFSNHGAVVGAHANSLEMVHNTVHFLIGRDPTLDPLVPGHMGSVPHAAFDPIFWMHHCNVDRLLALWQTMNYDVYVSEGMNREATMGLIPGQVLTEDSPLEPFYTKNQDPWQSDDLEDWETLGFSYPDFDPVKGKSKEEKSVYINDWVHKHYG
Description: Carboxylic acid solutions at various concentrations were mixed with PBS buffer and tyrosinase (final concentration of 60 U/mL) and then transferred to a black 96-well plate. Fluorescence analysis was conducted using a microplate reader (Infinite 200Pro, Tecan).

[1] = target: tyrosinase from BioVision, Inc. (claimed to be of human origin); design: method as in PMID 38909081; conditions: cited from earlier work
rabbits and mice = conditions: in vivo; cited from earlier work

Chain of mushroom tyrosinase (C7FF04 2-392): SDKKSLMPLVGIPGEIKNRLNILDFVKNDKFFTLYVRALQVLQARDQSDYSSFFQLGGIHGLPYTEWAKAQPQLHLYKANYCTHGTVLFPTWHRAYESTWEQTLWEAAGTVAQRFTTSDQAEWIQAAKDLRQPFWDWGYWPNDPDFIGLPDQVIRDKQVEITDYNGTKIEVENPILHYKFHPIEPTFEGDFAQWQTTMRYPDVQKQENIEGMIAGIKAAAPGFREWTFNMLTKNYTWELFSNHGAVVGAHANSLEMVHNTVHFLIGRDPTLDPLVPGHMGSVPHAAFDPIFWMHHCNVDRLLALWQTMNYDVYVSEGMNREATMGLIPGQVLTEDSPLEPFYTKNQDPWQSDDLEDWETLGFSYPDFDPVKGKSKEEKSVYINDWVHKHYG

| SMILES | inhibition at 6000 µM (mushroom tyrosinase; 6 mM) | decrease of tyrosinase fluorescence intensity (tyrosinase) | inhibition at 6000 µM (mushroom tyrosinase) | IC50 [1] | oral LD50 (rabbits and mice) |
| --- | --- | --- | --- | --- | --- |
| O=C(O)C(O)Cc1ccccc1 (stereo not drawn) [3-phenyllactic acid] | > 80% | 29.3% | – | – | – |
| O=C(O)CC(O)C(=O)O (stereo not drawn) [malic acid] | – | 29.0% | > 80% | 87.5 µM | 1600 to 3200 mg/kg |
